This note sets out measurements from EP1214299B1, “MUSCARINIC ANTAGONISTS” (SCHERING CORPORATION, priority 1999, dated 2001).

One assay relates to Acetylcholine (ACh). The experiment in a line: Microdialysis (ACh in striatal microdialysate). Type of assay: in vivo, male Sprague-Dawley Rats. The settings on record: dose of 10 mg/kg PO; ACh in rat striatum microdialysate. As to the method: The skull was exposed and drilled through to the dura at a point 0.2 mm anterior and 3.0 mm lateral to the bregma. At these coordinates, a guide cannula was positioned at the outer edge of the dura through the drilled opening, lowered perpendicularly to a depth of 2.5 mm, and permanent!y secured with dental cement to bone screws. Following the surgery, rats were given ampicillin (40 mg/kg, ip) and individually housed in modified cages. A recovery period of approximately 3 to 7 days was allowed before the microdialysis procedure was undertaken. • Microdialysis: All of the equipment and instrumentation used to conduct in vivo microdialysis was obtained from Bioanalytical Systems, Inc. (BAS). The microdialysis procedure involved the insertion through the guide cannula of a thin, needle-like perfusable probe (CMA/12,3 mm x 0.5 mm) to a depth of 3 mm in striatum beyond the end of the guide. The probe was connected beforehand with tubing to a microinjection pump (CMA/ 100). Rats were collared, tethered, and, following probe insertion, were placed in a large, clear, plexiglass bowl with litter material and access to food and water. The probe was perfused at 2 µl/min with Ringer's buffer (NaCl 147 mM; KCl 3.0 mM; CaCl2 1.2 mM; MgCl2 1.0 mM) containing 5.5 mM glucose, 0.2 mM L-ascorbate, and 1 µM neostigmine bromide at pH 7.4). To achieve stable baseline readings, microdialysis was allowed to proceed for 90 minutes prior to the collection of fractions. Fractions (20 µl) were obtained at 10 minute intervals over a 3 hour period using a refrigerated collector (CMA/170 or 200). Four to five baseline fractions were collected, following which the drug or combination of drugs to be tested was administered to the animal. Upon completion of the collection, each rat was autopsied to determine accuracy of probe placement. • Acetylcholine (ACh) analysis: The concentration of ACh in collected samples of microdialysate was determined using HPLC/electrochemical detection. Samples were auto-injected (Waters 712 Refrigerated Sample Processor) onto a polymeric analytical HPLC column (BAS, MF-6150) and eluted with 50 mM Na2HPO4, pH 8.5. To prevent bacterial growth, Kathon CG reagent (0.005%) (BAS) was included in the mobile phase. Eluent from the analytical column, containing separated ACh and choline, was then immediately passed through an immobilized enzyme reactor cartridge (BAS, MF-6151) coupled to the column outlet. The reactor contained both acetylcholinesterase and choline oxidase covalently bound to a polymeric backbone. […] Data acquisition was carried out using an IBM Model 70 computer equipped with a microchannel IEEE board. Integration and quantification of peaks were accomplished using "Maxima" chromatography software (Waters Corporation). Total run time per sample was 11 minutes at a flow rate of 1 ml/min. Retention times for acetylcholine and choline were 6.5 and 7.8 minutes, respectively. To monitor and correct for possible changes in detector sensitivity during chromatography, ACh standards were included at the beginning, middle and end of each sample queue.
Increases in ACh levels are consistent with presynaptic m2 receptor antagonism.
Data for representative and/or preferred compounds of the present invention are as follows (compounds were administered at a dose of 10 mg/kg PO): […]

In assay [1] the target is human m4 muscarinic receptor (Homo sapiens, UniProt P08173). The experiment in a line: biochemical. Format: binding.
The target of assay [2] is human m1 muscarinic receptor (Homo sapiens, UniProt P11229). In words: biochemical. Type of assay: binding.
In assay [3] the target is human m3 muscarinic receptor (Homo sapiens, UniProt P20309). The settings on record: read-out: m3 Ki; membranes from stably transfected CHO cell lines, 3H-QNB.
For another assay, the target named is T1, m5 (Homo sapiens, UniProt P08912).
T1 sequence (P08912 1-532): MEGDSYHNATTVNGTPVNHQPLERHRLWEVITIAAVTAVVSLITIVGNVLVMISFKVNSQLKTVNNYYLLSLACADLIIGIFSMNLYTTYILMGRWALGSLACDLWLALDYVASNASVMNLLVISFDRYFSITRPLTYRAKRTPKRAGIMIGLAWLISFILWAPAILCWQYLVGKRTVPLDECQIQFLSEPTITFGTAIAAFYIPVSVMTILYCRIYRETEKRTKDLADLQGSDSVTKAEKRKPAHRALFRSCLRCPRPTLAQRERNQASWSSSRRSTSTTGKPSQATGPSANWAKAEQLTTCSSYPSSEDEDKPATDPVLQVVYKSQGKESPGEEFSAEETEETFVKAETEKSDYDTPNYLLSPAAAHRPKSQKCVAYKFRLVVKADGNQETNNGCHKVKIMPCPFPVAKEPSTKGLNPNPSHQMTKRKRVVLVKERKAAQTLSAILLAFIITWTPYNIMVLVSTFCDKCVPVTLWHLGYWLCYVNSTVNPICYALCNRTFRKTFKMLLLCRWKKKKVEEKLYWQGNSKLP
The following applies: read-out: m5 Ki.

Like-named read-outs stand apart in the source and are kept apart here.

human m4 muscarinic receptor, sequence (P08173 whole entry): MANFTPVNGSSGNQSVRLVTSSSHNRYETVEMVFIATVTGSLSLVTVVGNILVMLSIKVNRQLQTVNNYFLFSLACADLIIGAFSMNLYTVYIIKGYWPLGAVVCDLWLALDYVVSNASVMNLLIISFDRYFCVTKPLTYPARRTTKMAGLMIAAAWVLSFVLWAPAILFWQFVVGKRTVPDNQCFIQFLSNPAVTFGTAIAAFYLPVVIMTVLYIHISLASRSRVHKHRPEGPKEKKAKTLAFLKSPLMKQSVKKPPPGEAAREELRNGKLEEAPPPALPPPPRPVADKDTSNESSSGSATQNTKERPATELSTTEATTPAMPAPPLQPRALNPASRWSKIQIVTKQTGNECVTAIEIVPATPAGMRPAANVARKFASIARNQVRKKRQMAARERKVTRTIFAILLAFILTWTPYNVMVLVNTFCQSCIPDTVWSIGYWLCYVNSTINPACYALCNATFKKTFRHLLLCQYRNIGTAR
human m1 muscarinic receptor, sequence (P11229 whole entry): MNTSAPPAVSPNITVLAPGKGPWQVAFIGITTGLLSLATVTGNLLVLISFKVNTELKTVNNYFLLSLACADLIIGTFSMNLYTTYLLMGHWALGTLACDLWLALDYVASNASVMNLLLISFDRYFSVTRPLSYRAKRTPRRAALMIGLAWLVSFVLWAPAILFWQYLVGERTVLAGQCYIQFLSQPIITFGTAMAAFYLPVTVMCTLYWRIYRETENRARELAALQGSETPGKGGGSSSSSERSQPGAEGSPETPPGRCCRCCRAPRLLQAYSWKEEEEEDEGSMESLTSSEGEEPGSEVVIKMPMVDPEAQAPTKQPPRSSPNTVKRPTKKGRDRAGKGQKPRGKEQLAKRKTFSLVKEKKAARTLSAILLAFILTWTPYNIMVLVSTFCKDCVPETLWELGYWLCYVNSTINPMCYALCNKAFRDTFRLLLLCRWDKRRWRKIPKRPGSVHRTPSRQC
human m3 muscarinic receptor, sequence (P20309 whole entry): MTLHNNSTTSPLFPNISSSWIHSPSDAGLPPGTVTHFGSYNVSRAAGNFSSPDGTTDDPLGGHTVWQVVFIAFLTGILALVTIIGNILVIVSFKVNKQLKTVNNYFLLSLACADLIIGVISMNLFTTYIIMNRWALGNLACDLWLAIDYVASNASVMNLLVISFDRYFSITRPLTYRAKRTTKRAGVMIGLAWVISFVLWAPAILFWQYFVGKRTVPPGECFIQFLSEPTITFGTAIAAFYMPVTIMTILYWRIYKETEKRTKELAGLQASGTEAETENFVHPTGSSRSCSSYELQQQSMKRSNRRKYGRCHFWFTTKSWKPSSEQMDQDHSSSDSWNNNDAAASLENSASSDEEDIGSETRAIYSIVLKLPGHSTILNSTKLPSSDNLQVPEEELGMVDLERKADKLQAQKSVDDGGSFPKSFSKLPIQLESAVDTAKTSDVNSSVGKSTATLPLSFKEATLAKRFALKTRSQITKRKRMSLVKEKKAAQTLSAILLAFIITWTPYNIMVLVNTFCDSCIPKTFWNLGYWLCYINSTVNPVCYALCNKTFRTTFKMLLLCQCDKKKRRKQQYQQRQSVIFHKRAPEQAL

As for `COc1ccc(S(=O)(=O)c2ccc(C3(C4CCN(C5CCN(C(=O)c6cccc(F)c6N)CC5)CC4)OCCO3)cc2)cc1` [Example 2F], the “Microdialysis Maximum % of baseline” value in the assay with Acetylcholine (ACh) was 186 % of baseline.
Turning to `COc1ccc(S(=O)(=O)c2ccc(C3(C4CCN(C5CCN(C(=O)c6cccc(C)c6N)CC5)CC4)OCCO3)cc2)cc1` [Example 2], in the assay on Acetylcholine (ACh), the “Microdialysis Maximum % of baseline” value is 194 % of baseline.
Turning to `Nc1cc(F)ccc1C(=O)N1CCC(N2CCC(C3(c4ccc(S(=O)(=O)c5cccc(Cl)c5)cc4)OCCO3)CC2)CC1` [Example 3E], the “Microdialysis Maximum % of baseline” value in the assay on Acetylcholine (ACh) was 188 % of baseline.
`Nc1ccccc1C(=O)N1CCC(N2CCC(Cc3ccc(S(=O)(=O)c4cccc(Cl)c4)cc3)CC2)CC1` [Example 7A]: the Ki in assay [1] is 33.3 nM; in assay [2] it was 658 nM. For the same molecule, the “Microdialysis Maximum % of baseline” value in the assay on Acetylcholine (ACh) is 150 % of baseline.
For `Cc1cccc(C(=O)N2CCC(N3CCC(Cc4ccc(S(=O)(=O)c5cccc(Cl)c5)cc4)CC3)CC2)c1N` [Example 7], the Ki in assay [1] (membranes from stably transfected CHO cell lines, 3H-QNB, read-out: m4 Ki) was found to be 61.4 nM; in assay [3], 698 nM; in assay [2] (membranes from stably transfected CHO cell lines, 3H-QNB, read-out: m1 Ki), 650 nM; on m5 it was 84.5 nM. Besides, the “Microdialysis Maximum % of baseline” value in the assay on Acetylcholine (ACh) is on record as 180 % of baseline.

As a reminder, the Ki is the equilibrium dissociation constant of an inhibitor or competing ligand from its target.
